Like-named read-outs stand apart in the source and are kept apart here. Values belong to the compound of their own block, whether it stands above or below them.
What was measured:
[1] = cited from earlier work
[2] = no reference given, cited from earlier work
[3] = Equilibrium between di-, tri- and tetrasulfides in the presence of elemental sulfur (1H NMR); type: physicochemical; settings: D2O with elemental sulfur and butylamine, after 4 days
Description: To test this hypothesis, a reaction was completed in D2O with elemental sulfur, NAC disulfide, and butylamine.
To understand why the degradation leveled off, NAC trisulfide was dissolved in water, elemental sulfur was added, and the contents were heated to 40 °C.
N-Acetylcysteine disulfide (9.3 mg, 23 μmol) was dissolved in 600 μL of D2O. Elemental sulfur (6.8 mg, 0.21 mmol) and butylamine (18.5 mg, 0.25 mmol) were added, and the ^1H NMR spectra were periodically obtained to track the equilibrium.

[4] = Stability in water/D2O buffered at different pH values, tracked by 1H NMR; type: physicochemical; settings: for half-life: buffered water/D2O, read-out: estimated half-life (converted); for degradation: pH 5.8, 9 days
Description: The ^1H NMR spectra of NAC and the disulfide, trisulfide, and tetrasulfide of NAC had peaks at unique values for chemical shifts and allowed for their easy characterization (Figure 3). Pure chemicals of each sulfide were synthesized and characterized by ^1H and ^13C NMR spectroscopy as well as by high-resolution mass spectroscopy. The unique chemical shifts of the peaks for the Ha and Hb/Hc protons on the sulfides allowed the integration of each sulfide to be determined.
The stability of NAC trisulfide in water buffered at pH values of 5.8, 7.4, and 9.0 was measured.
The stability of cysteine trisulfide was investigated in buffered water at pH values of 5.8, 7.0, and 9.0. […] At pH values of 5.8, 7.0, and 9.0, the cysteine trisulfide was soluble and its ^1H NMR spectra were obtained.
The stability of glutathione trisulfide was investigated at pH values of 5.8, 7.4, and 9.0 (Figure S14a). The degradation of glutathione trisulfide was more rapid at pH values of 5.8 and 7.4 than that of the trisulfides of NAC and cysteine. At an acidic pH of 5.8, 71% of glutathione trisulfide degraded after 10 days. At pH values of 7.4 and 9.0, glutathione trisulfide degraded 79 and 81%, respectively, at day 9. […] The degradation of glutathione trisulfide reached an equilibrium of approximately 20% with the disulfide due to the reaction catalyzed by amine with elemental sulfur. Rate constants and half-lives were obtained for the degradation of glutathione trisulfide at each pH value using early data points unaffected by the equilibrium. At pH values of 5.8, 7.4, and 9.0, the estimated half-lives were 6.3 days (151 h), 0.90 days (21.6 h), and 0.79 days (19.0 h), respectively (Figure S14b).
The stability of NAC tetrasulfide was investigated in D2O buffered at pH values of 5.8, 7.4, and 9.0 (Figure S16a). At a pH of 5.8, NAC tetrasulfide degraded by 13% after 9 days. At pH values of 7.4 and 9.0, the tetrasulfide degraded by 55 and 52%, respectively, after 9 days. At each pH, the degradation product was NAC trisulfide, elemental sulfur, and a small amount of NAC disulfide (<3%). […] Estimated rate constants and half-lives for the degradation of NAC tetrasulfide at each pH were obtained. At pH values of 5.8, 7.4, and 9.0, the estimated half-lives were 53.3, 7.5, and 8.2 days, respectively (Figure S16b).

[5] = Stability in D2O in the presence of butylamine or triethylamine, tracked by 1H NMR; type: physicochemical; settings: for tetrasulfide present: butylamine and triethylamine; for degraded: after 1 day
Description: N-Acetylcysteine trisulfide (26.5 mg, 66 μmol) was dissolved in 600 μL of D2O. Butylamine (5.0 mg, 68 μmol) was added, and the ^1H NMR spectra were taken periodically to track degradation.
N-Acetylcysteine trisulfide (26.5 mg, 66 μmol) was dissolved in 600 μL of D2O. Triethylamine (8.0 mg, 79 μmol) was added, and the ^1H NMR spectra were taken periodically to track degradation.
Cysteine trisulfide (5.5 mg, 20 μmol) was added to 600 μL of D2O. The solution was filtered to remove undissolved particles. […] The ^1H NMR spectra were taken periodically to track degradation.
Cysteine trisulfide (4.3 mg, 16 μmol) was added to 600 μL of D2O. The solution was filtered to remove undissolved particles. […] The ^1H NMR spectra were taken periodically to track degradation.
N-Acetylcysteine tetrasulfide (17.2 mg, 44 μmol) was dissolved in 600 μL of D2O. Butylamine (9.9 mg, 135 μmol) was added, and the ^1H NMR spectra were taken periodically to track degradation.
N-Acetylcysteine tetrasulfide (17.2 mg, 44 μmol) was dissolved in 600 μL of D2O. Triethylamine (13.5 mg, 135 μmol) was added, and the ^1H NMR spectra were taken periodically to track degradation.

[6] = Stability in nonbuffered D2O at room and elevated temperature (1H NMR); type: physicochemical; settings: nonbuffered D2O
Description: N-Acetylcysteine trisulfide (24.3 mg, 61 μmol) was dissolved in 500 μL of D2O and placed in a 40 °C oil bath. The ^1H NMR spectra were taken periodically to track degradation.
N-Acetylcysteine trisulfide (24.3 mg, 61 μmol) was dissolved in 500 μL of D2O and placed in a 60 °C oil bath. The ^1H NMR spectra were taken periodically to track degradation.
N-Acetylcysteine tetrasulfide (8.0 mg, 21 μmol) was dissolved in 600 μL of D2O. The ^1H NMR spectra were taken periodically to track degradation.
N-Acetylcysteine tetrasulfide (10.0 mg, 26 μmol) was dissolved in 600 μL of D2O and placed in a 40 °C oil bath. The ^1H NMR spectra were taken periodically to track degradation.

[7] = Stability in the presence of acetonitrile, benzamide, zinc sulfate or iron sulfate, or in methanol-d4 (1H NMR); type: physicochemical; settings: 3:1 mole ratio acetonitrile or benzamide, D2O, after 12 days
Description: N-Acetylcysteine trisulfide (26.5 mg, 66 μmol) was dissolved in 600 μL of D2O. Acetonitrile (3.0 mg, 73 μmol) was added, and the ^1H NMR spectra were taken periodically to track degradation.
N-Acetylcysteine trisulfide (31.4 mg, 78 μmol) was dissolved in 600 μL of D2O. Benzamide (9.4 mg, 78 μmol) was added, and the ^1H NMR spectra were taken periodically to track degradation.
N-Acetylcysteine trisulfide (15.0 mg, 38 μmol) was dissolved in 600 μL of D2O. ZnSO4 (11.8 mg, 73 μmol) was added, and the ^1H NMR spectra were taken periodically to track degradation.
N-Acetylcysteine trisulfide (15.0 mg, 38 μmol) was dissolved in 600 μL of D2O. FeSO4·7H2O (11.6 mg, 41 μmol) was added, and the ^1H NMR spectra were taken periodically to track degradation.
N-Acetylcysteine trisulfide (32.1 mg, 80 μmol) was dissolved in 600 μL of CD3OD. The ^1H NMR spectra were taken periodically to track degradation.
Cysteine trisulfide (5.1 mg, 19 μmol) was added to 600 μL of D2O. Solution was filtered to remove undissolved particles. […] The ^1H NMR spectra were taken periodically to track degradation.
Cysteine trisulfide (6.8 mg, 25 μmol) was added to 600 μL of D2O. Solution was filtered to remove undissolved particles. […] The ^1H NMR spectra were taken periodically to track degradation.

Solubility observations = type: physicochemical

SMILES: C=CCSSSCC=C [DATS, diallyl trisulfide]
degradation ([1]; in the presence of glutathione (GSH)): degraded rapidly
stability ([1]; micellar solution (propylene glycol, ethanol, Tween 80, water), pH 2.6 to 7.0, 15 min, HPLC): stable
stability ([1]; neat, 4 °C, after 3 months, HPLC): stable
degraded ([1]; neat, 35 °C, after 3 months, HPLC): 30%
degraded ([1]; neat, room temperature, after 3 months, HPLC): 11%
stability ([1]; same micellar solution, in the presence of antioxidants): not stable

SMILES: CSSSC [DMTS, dimethyl trisulfide]
degradation ([1]; neat, 4 and 22 °C, over 1 year): no degradation
degraded ([1]; neat, 34 °C, over 1 year): 70%

SMILES: S [H2S, hydrogen sulfide]
pKa [2]: 7.0

converted to trisulfide [3]: 15%
SMILES: CC(=O)N[C@@H](CSSC[C@H](NC(C)=O)C(=O)O)C(=O)O [NAC disulfide, N-Acetylcysteine disulfide, reference compound]

half-life ([4]; pH 5.8, pH 5.8): 53.3 days
half-life ([4]; pH 7.4, pH 7.4): 7.5 days
half-life ([4]; pH 9, pH 9.0): 8.2 days
degradation [4]: 13%
degraded ([4]; pH 7.4, day 9): 55%
degraded ([4]; pH 9.0, day 9): 52%
half-life at 73 mM ([5]; D2O with butylamine or triethylamine, in the presence of butylamine and triethylamine (both amines), read-out: upper limit of the half-life): ≤ 1.6 min
half-life ([5]; D2O with butylamine, in the presence of butylamine (abstract), read-out: half-life): ≤ 1.5 min
tetrasulfide present ([5]; after 5 min): less than 10%
tetrasulfide present ([5]; after a day): 4%
estimated rate constant ([6]; 40 °C): 8.7 × 10^–2 days^–1
degraded ([6]; 40 °C, after 20 days): 83%
degradation ([6]; 40 °C, after 63 days): 83%
half-life at 43 mM ([6]; 40 °C, read-out: estimated half-life (converted)): 8 days
estimated rate constant ([6]; room temperature): 3.9 × 10^–2 days^–1
degraded ([6]; room temperature, after 35 days): 69%
half-life at 35 mM ([6]; room temperature, read-out: estimated half-life (converted)): 17.8 days
SMILES: CC(=O)NC(CSSSSCC(NC(C)=O)C(=O)O)C(=O)O (centres unmarked) [NAC tetrasulfide, N-Acetylcysteine Tetrasulfide]
stability ([1]; in the presence of thiols, released H2S): unstable

stability ([4]; basic conditions (abstract)): unstable
half-life ([4]; pH 7, pH 7.0): 16.9 days
half-life ([4]; pH 9, pH 9.0): 11.4 days
degradation [4]: < 3%
degraded ([4]; pH 7.0, after 13 days): 40%
degraded ([4]; pH 9.0, after 13 days): 56%
half-life ([5]; D2O with butylamine, in the presence of butylamine, D2O, early data points, read-out: estimated half-life of degradation (converted)): 138 min
half-life ([5]; D2O with triethylamine, in the presence of triethylamine, D2O, early data points, read-out: estimated half-life of degradation (converted)): 174 min
trisulfide remaining (degradation leveled off) ([5]; after 10 days in the presence of butylamine and triethylamine, D2O): approximately 20%
degraded ([5]; in the presence of butylamine, D2O): 63%
degraded ([5]; in the presence of triethylamine, D2O): 78%
degradation [7]: no observable degradation
solubility (Solubility observations; buffered water pH 5.8, 7.0 and 9.0): soluble
solubility (Solubility observations; buffered water pH 7.4): poorly soluble
SMILES: N[C@@H](CSSSC[C@H](N)C(=O)O)C(=O)O [cysteine trisulfide, Cysteine Trisulfide]

SMILES: N[C@@H](CS)C(=O)O [cysteine]
pKa ([2]; ammonium group): 10.8

SMILES: N[C@@H](CCC(=O)N[C@@H](CS)C(=O)NCC(=O)O)C(=O)O [glutathione]
pKa ([2]; ammonium group): 9.6
